The values below come from patent US20250171418A1, “PARP1 INHIBITORS AND USES THEREOF” (XinThera, Inc., priority 2022, published 2025).

pEC50, pIC50: −log10 of the molar value.

Data set [1] has as its system MDA-MB-436 (mutated BRCA1) cell lines. The data set is described as follows: Cell growth inhibition assay (CellTiter-Glo cell viability). As to conditions: Homo sapiens, 168 h; MDA-MB-436 cells, 7 days, CellTiter Glo 2.0. Type of data set: cell-based. Here is the method:
(§1) Cell proliferation was measured through the cell viability assay using DLD-1 BRCA2(−/−) and parental isogenic pair and MDA-MB-436 (mutated BRCA1) cell lines. The CellTiter-Glo (CTG) based cell viability assay is designed to determine the number of viable cells in the culture because of compound effect, by quantifying ATP, which indicates the presence of metabolically active cells.
(§2) DLD-1 BRCA2(−/−) and parental isogenic pair were cultured in RPMI 1640 supplemented with 10% fetal bovine serum (FBS), and MDA-MB-436 cells were cultured in DMEM supplemented with 10% FBS. Both were cultured at 37° C. with […]. Invention compounds were distributed to the 384 well plate (Corning, 3764) using Echo acoustic liquid handler to form a 1:3 serially diluted final concentration with top dose of 10 or 30 μM.
A general note: Cellular ATP, detected with luciferase, serves as a proxy for viable cell number.

Data set [2] relates to DLD-1 BRCA2(−/−). The data set is described as above. It counts as cell-based. As to conditions: Homo sapiens, DLD-1, 168 h, DLD-1 BRCA2(−/−) cells, 7 days, CellTiter Glo 2.0. The protocol: as §1, §2
Data set [3] concerns the target T1, BCRP (Homo sapiens, UniProt Q9UNQ0).
T1 construct: expressed in transfected cells; host or cells: MDCKII (Madin-Darby canine kidney) cells
T1 sequence (Q9UNQ0 1-655): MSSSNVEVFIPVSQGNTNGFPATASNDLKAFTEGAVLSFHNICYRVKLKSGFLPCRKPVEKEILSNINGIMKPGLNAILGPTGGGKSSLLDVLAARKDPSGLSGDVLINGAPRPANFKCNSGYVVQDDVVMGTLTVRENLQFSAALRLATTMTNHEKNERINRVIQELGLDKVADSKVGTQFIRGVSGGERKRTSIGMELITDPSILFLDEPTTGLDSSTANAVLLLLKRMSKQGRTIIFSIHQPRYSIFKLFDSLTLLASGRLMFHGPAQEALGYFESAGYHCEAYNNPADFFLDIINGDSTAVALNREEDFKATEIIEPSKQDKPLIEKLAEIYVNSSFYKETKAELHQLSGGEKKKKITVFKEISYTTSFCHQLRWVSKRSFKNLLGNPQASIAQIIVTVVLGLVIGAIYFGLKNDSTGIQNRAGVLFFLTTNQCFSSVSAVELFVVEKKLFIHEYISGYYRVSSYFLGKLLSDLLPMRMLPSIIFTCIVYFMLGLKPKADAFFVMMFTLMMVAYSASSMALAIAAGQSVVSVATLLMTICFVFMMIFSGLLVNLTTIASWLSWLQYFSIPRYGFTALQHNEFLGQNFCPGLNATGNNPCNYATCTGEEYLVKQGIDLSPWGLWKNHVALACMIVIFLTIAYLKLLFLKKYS
As to the kind of experiment: In vitro human transporter efflux, MDCKII cells expressing BCRP. Type of data set: in vitro ADME. As to conditions: for efflux ratio at 2 h, 10 μM: pH 7.4, Efflux ratio=Papp(B→A)/Papp(A→B); for Papp A→B at 2 h, 10 μM: pH 7.4, read-out: BCRP Papp AB; for Papp B→A at 2 h, 10 μM: pH 7.4, read-out: BCRP Papp BA. Here is the method: (§3) Madin-Darby canine kidney (MDCKII) cells expressing either MDR1 or BCRP were seeded onto Corning HTS Transwell® 96-well polycarbonate permeable (0.4 μm pore) supports at a density of 545,000 cells/cm2. Cells were incubated for 4-8 days prior to assay, and monolayer integrity was assessed by measuring transepithelial electrical resistance (TEER). […] The final organic solvent concentration was 0.5% (v/v). Bidirectional (apical-to-basolateral and basolateral-to-apical) flux of the test and reference compounds was determined over a 2-hour incubation at 37° C. and […] with a relative humidity of 95%. At the end of the incubation, samples from the apical and basolateral side were taken and then precipitated with acetonitrile containing internal standard. After centrifugation at 3200×g, supernatants were diluted 1:1 (v/v) with water and subjected to analysis via HPLC-MS/MS.
(§4) The apparent permeability (Papp, units of x 10-6 cm/s) was calculated using the following equation: […]
(§5) Where dQ/dt was the rate of drug transport (pmol/s), A was the surface area of the membrane (0.143 cm^2), and DO was the initial donor concentration (nM or pmol/cm3).
(§6) Efflux ratio=Papp(B→A)/Papp(A→B)
(§7) Where Papp(B→A) is the apparent permeability in the basolateral-to-apical direction, and Papp(A→B) is the apparent permeability in the apical-to-basolateral direction.

In data set [4] the target is T2, MDR1 (Homo sapiens, UniProt P08183).
T2 construct: expressed in transfected cells; host or cells: MDCKII (Madin-Darby canine kidney) cells
As to the kind of experiment: In vitro human transporter efflux, MDCKII cells expressing MDR1. As to conditions: for efflux ratio at 2 h, 10 μM: MDCK-MDR1, pH 7.4, Efflux ratio=Papp(B→A)/Papp(A→B); for Papp A→B at 2 h, 10 μM: MDCK-MDR1, pH 7.4, read-out: MDCK-MDR1 Papp AB; for Papp B→A at 2 h, 10 μM: MDCK-MDR1, pH 7.4, read-out: MDCK-MDR1 Papp BA. It counts as in vitro ADME. The protocol:
as §3, §4, §5, §6, §7

Data set [5] in a line: In vivo determination of rat Kp,uu. As to conditions: brain and plasma, 1 mg/kg, male Sprague-Dawley rats, oral gavage, 0.1 mg/mL at 10 mL/kg, Kp*(fraction unbound in brain homogenate/fraction unbound in plasma). The protocol: The equilibrium dialysis method was used to investigate the in vitro binding of test articles and reference compounds to plasma proteins. Plasma samples containing 5 μM test article or blank dialysis buffer solution (PBS, pH 7.4) were added to separate chambers of the dialysis wells of the High Throughput equilibrium Dialysis (HTD) device. The dialysis plate was sealed and placed in an incubator at 37° C. with 5% CO2 with shaking at approximately 100 rpm for 6 hours. All experiments were performed in duplicate. Ketoconazole (5 μM) was used as the reference compound. After incubation, the seal was removed, and 50 μL of post-dialysis samples were pipetted from both buffer and plasma chambers into fresh 96well plates. Samples were equimatrilyzed by either addition of blank plasma to buffer samples or the addition of blank buffer to plasma samples. […] The unbound fractions in plasma were calculated using the concentrations of test articles in buffer and plasma samples according to the following equation: […]
The equilibrium dialysis method was used to investigate the in vitro binding of test articles and reference compounds to rodent brain homogenate. […] The unbound fractions in diluted brain homogenate were calculated using the concentrations of test articles in buffer and homogenate samples according to the following equation: […]

The target of data set [6] is PARP1 (Homo sapiens, UniProt P09874). As to the kind of experiment: biochemical.
Sequence of PARP1 (P09874 whole entry): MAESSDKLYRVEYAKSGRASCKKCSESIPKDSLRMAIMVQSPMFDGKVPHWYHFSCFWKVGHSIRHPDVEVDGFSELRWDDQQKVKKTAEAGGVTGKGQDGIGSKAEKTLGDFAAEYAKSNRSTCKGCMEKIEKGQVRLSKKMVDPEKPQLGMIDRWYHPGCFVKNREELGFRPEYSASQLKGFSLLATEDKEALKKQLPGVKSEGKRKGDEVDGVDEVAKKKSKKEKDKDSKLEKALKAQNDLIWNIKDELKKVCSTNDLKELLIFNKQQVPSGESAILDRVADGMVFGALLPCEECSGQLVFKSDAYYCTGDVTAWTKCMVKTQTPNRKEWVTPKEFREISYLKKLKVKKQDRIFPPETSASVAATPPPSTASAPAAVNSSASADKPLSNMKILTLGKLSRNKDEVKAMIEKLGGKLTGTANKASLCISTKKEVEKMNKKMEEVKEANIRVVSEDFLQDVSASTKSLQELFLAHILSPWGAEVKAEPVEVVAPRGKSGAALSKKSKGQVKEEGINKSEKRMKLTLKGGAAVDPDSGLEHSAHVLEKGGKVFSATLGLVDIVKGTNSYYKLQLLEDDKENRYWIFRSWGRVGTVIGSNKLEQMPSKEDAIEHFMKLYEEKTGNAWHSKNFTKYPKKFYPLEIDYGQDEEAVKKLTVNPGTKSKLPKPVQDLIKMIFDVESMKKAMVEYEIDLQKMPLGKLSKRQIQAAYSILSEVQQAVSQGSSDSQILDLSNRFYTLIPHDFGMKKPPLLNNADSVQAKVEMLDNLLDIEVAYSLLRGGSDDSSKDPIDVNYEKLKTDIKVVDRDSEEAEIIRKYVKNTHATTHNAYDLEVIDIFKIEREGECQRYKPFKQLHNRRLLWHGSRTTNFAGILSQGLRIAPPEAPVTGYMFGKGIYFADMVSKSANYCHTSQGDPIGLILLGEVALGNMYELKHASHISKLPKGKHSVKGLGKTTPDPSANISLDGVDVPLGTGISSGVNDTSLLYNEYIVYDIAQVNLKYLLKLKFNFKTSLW
Protocol: The assay was performed utilizing the following method:
Compounds were dissolved in DMSO an Echo550 liquid handler was utilized to make serial dilations in the desired concentration range in Optiplate-384F plates. 100% DMSO was used for the high (with protein) and low (without protein) control samples. 20 nL of compound or DMSO alone was added to individual assay plate wells.
PARP1 and PARP2 protein were expressed, purified, and diluted in assay buffer containing 50 mM Tris pH 8.0, 0.001% Triton X-100, 10 mM MgCl2, 150 mM NaCl to a final concentration of 20 nM. The PARPi-FL was then added at a final concentration of 3 nM.
The assay plate was centrifuged at 1000 rpm for 1 min and incubated for 4 h at room temperature.
The fluorescent polarization was read using an Envision plate reader using the following settings: • Excitation filter—FITC FP 480-Ex Slot 3 • Emission filter—FITC FP P-pol 535-Em Slot 4 • 2nd Emission filter—FITC FP S-pol 535-Em Slot 3 • Mirror module—FITC FP Dual Enh-Slot 1
XLFit (equation 201) is used to calculate a reported IC50 for each compound.

T2 sequence (P08183 whole entry): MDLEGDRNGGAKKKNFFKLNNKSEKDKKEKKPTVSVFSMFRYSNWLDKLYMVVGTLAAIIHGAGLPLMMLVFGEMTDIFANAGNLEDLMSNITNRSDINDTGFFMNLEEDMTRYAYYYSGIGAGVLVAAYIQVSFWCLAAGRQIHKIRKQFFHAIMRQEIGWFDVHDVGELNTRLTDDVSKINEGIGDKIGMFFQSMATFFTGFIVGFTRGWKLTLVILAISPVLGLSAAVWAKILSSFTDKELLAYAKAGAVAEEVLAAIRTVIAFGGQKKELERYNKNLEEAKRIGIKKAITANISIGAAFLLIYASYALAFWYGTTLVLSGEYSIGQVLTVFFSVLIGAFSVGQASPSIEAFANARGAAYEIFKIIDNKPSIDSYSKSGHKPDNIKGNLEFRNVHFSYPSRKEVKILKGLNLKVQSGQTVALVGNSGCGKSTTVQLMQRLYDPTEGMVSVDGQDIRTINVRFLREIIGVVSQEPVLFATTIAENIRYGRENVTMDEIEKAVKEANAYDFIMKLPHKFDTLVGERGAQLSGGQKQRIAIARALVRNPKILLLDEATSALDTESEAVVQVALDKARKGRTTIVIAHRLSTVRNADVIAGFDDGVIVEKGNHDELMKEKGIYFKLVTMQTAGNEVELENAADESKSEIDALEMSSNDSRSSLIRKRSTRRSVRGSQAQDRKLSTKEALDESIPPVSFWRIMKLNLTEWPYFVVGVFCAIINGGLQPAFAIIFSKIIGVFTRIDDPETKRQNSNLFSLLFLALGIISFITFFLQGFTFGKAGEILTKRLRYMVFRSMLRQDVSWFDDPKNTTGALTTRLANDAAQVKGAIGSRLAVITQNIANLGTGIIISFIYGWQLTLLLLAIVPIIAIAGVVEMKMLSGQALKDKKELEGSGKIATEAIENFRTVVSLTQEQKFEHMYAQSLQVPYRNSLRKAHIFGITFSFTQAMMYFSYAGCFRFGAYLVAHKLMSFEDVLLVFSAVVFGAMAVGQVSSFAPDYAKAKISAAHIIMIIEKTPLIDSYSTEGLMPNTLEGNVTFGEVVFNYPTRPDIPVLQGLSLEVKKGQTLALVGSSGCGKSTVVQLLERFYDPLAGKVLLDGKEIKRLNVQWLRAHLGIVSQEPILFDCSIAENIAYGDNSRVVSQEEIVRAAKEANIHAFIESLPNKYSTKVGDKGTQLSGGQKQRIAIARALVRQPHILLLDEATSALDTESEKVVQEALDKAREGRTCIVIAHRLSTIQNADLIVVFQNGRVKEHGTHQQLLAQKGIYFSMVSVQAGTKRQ

As for `Cc1nc2ccc(CN3CCN(c4ccc(C(=O)NC5CC5)nc4F)CC3)c(F)c2[nH]c1=O` [Example 1, N-cyclopropyl-6-fluoro-5-{4-[(5-fluoro-2-methyl-3-oxo-4H-quinoxalin-6-yl)methyl]piperazin-1-yl}pyridine-2-carboxamide], in data set [1], the pEC50 (usually the negative decadic logarithm of the EC50, by convention in mol/L) is 8.62. In data set [2], the pEC50 was 8.43. Besides, in data set [3], the efflux ratio (in general, a quotient of directional permeabilities that is used to spot active efflux) at 2 h, 10 μM was found to be 0.94; the Papp A→B at 2 h, 10 μM was 25.7 ×10⁻⁶ cm/s; the Papp B→A at 2 h, 10 μM amounted to 24.1 ×10⁻⁶ cm/s. Moreover, in data set [4], the efflux ratio at 2 h, 10 μM was 1.82; the Papp A→B at 2 h, 10 μM amounted to 16.5 ×10⁻⁶ cm/s; the Papp B→A at 2 h, 10 μM worked out at 30 ×10⁻⁶ cm/s. The Kp uu in data set [5] was determined as 0.37. Moreover, the negative-log IC50 (pIC50) (in general, the negative decadic logarithm of the IC50, by convention in mol/L) in data set [6] was 8.35.
`Cc1nc2ccc(CN3CCN(c4ccc(C(=O)NCC(F)F)nc4F)CC3)c(F)c2[nH]c1=O` [Example 19]: in data set [1], the negative-log EC50 (pEC50) is 8.66. Further, the negative-log EC50 (pEC50) in data set [2] is 8.41. Also, in data set [3], the efflux ratio at 2 h, 10 μM worked out at 0.73; the Papp A→B at 2 h, 10 μM worked out at 28 ×10⁻⁶ cm/s; the Papp B→A at 2 h, 10 μM was 20.2 ×10⁻⁶ cm/s. In data set [4], the efflux ratio at 2 h, 10 μM came out at 0.87; the Papp A→B at 2 h, 10 μM came out at 20.9 ×10⁻⁶ cm/s; the Papp B→A at 2 h, 10 μM was found to be 18.2 ×10⁻⁶ cm/s. In addition, in data set [6], the negative-log IC50 (pIC50) was 7.74.
